Patent EP0252380B1, “Antibiotic LL-E19020 alpha and beta” (AMERICAN CYANAMID COMPANY, priority 1986, dated 1988)
In brackets after ≈: the same amount, converted by molar mass.

Tests used:
[1] = tested on: Staphylococcus aureus Smith; assay: In vivo antibacterial activity in infected mice (Table III); details: S. aureus Smith, 30 minutes before infection
[2] = tested on: Salmonella choleraesuis; assay: Minimum inhibitory concentration by agar dilution (Table VI); type: cell-based; details: 2 strains tested
[3] = tested on: Serratia marcescens; assay: In vitro antibacterial activity, standard agar dilution method (Table II); type: cell-based; details: strain K-84-18
[4] = tested on: Streptococcus uberis; assay: Minimum inhibitory concentration by agar dilution (Table VI); type: cell-based; details: 1 strain tested
[5] = tested on: In Vitro Rumen Fermentation; assay: Propionate enhancement activity during in vitro rumen fermentation; type: cell-based, steer; details: for A:P: acetate/propionate ratio
Method: The drugs are dissolved or suspended (sonified if necessary) in a 0.1% Tween 20-ethanol-water vehicle and 25-50 ul is added to the incubation. The reaction is terminated with 6N HCl and centrifuged at 20,000 x g. Alliquots of the superinatant are analyzed for volatile fatty acid (VFA) content by gas-liquid chromatography.

[6] = tested on: Peptococcus magnus; assay: In vitro antibacterial activity, standard agar dilution method (Table II); type: cell-based
[7] = tested on: Staphylococcus saprophyticus; assay: as above; type: cell-based; details: strain VHG-84-50
[8] = tested on: Morganella morganii; assay: as above; type: cell-based; details: strain VGH-84-71
[9] = tested on: Enterobacter cloacae; assay: as above; type: cell-based; details: strain VGH-84-37
[10] = tested on: Treponema hyodysenteriae; assay: T. hyodysenteriae disk test (primary in vitro disk diffusion test); details: disks soaked in 2.5 mg/ml solution; strain B204 (ATCC 31212); zones of inhibited hemolysis
[11] = tested on: Escherichia coli; assay: In vitro antibacterial activity, standard agar dilution method (Table II); type: cell-based; details: strain 311
[12] = tested on: Klebsiella pneumoniae; assay: as above; type: cell-based; details: strain AD
[13] = tested on: Bacteroides fragilis; assay: as above; type: cell-based; details: strain NYC 77-1
[14] = tested on: Mycoplasma gallisepticum "R"; assay: Minimum inhibitory concentration assay for Mycoplasma gallisepticum (microdilution, Table VII); details: microdilution; "R" strain
[15] = tested on: Caenorhabditis elegans; assay: Control of the free living nematode Caenorhabditis elegans (motility rating); type: cell-based; set-up: key: 9 = worms immobile or dead within 4 hours post immersion in microfilter test solution; 8 = no motility; 7 = markedly reduced motility in approximately 95% of worms; 6 = reduced motility; 5 = slightly reduced motility; 0 = normal motility, same as controls; details: 150 ppm; motility of adults and larvae
Source text: Culture Maintenance: Cultures of C. elegans (Bristol strain from J. Lewis) are maintained on E. coli lawns on NG Agar Plates at 20 C. New cultures are established weekly. Nematodes for testing are washed from 4-5 day old cultures using Fresh Ascaris ringers Solution (FARS). The worms are further washed with FARS, containing gentamycin, to reduce bacterial contamination and centrifuged to separate worms from wash solution. This procedure is repeated three times. The washed worms are than added to C. briggsae Maintenance Medium (CbMM), from GIBCO^a to which is added gentamycin (600 units/ml) and mycostatin (0.5 mg.ml). ^aGIBCO Laboratories, 3175 Staley Road, Grand Island, N.Y. 14027, USA Compounds are dissolved in acetone and made up to volume with equal parts of water. The final test concentration of each compound in the mixture is 150 ppm. The test material is micropipetted (25 ul) into a single well of a 96-well sterile tissue culture plate (COSTAR)^b and the solvent allowed to evaporate. These "treated" plates are used immediately or stored in a freezer without apparent adverse effects on the compounds. ^b205 Broadway, Cambridge, MA 02139, USA […] […] Immediately prior to reading the plate, it is gently tapped to stimulate the movement of the worms. Activity is judged subjectively, but semi-quantitatively, based on the drug effects on motility of the adults and larvae. […]

[16] = tested on: Streptococcus faecalis; assay: Minimum inhibitory concentration by agar dilution (Table VI); type: cell-based; details: 1 strain tested
[17] = tested on: Clostridium difficile; assay: In vitro antibacterial activity, standard agar dilution method (Table II); type: cell-based; details: strain ATCC 17858
[18] = tested on: Escherichia coli; assay: Minimum inhibitory concentration by agar dilution (Table VI); type: cell-based; details: 2 strains tested
[19] = tested on: Pasteurella multocida 31081B; assay: Pasteurella disk test (primary in vitro disk diffusion test); details: disks soaked in 2.5 mg/ml solution; strain 31081B
[20] = tested on: Pasteurella haemolytica; assay: Minimum inhibitory concentration by agar dilution (Table VI); type: cell-based; details: 3 strains tested
[21] = tested on: Staphylococcus epidermidis; assay: In vitro antibacterial activity, standard agar dilution method (Table II); type: cell-based; details: strain IO-83-58
[22] = tested on: Pasteurella multocida; assay: Minimum inhibitory concentration by agar dilution (Table VI); type: cell-based; details: 6 strains tested
[23] = tested on: Clostridium perfringens; type: cell-based; details: strain ATCC 13124
[24] = tested on: Pseudomonas aeruginosa; assay: In vitro antibacterial activity, standard agar dilution method (Table II); type: cell-based; details: strain 12-4-4
[25] = tested on: Streptococcus agalactiae; assay: Minimum inhibitory concentration by agar dilution (Table VI); type: cell-based; details: 4 strains tested
[26] = tested on: Streptococcus pneumoniae; assay: In vitro antibacterial activity, standard agar dilution method (Table II); type: cell-based

C/C=C/C=C/[C@@H]1O[C@](O)([C@H](CO[C@H]2C[C@H](OC)[C@H](O[C@@H]3C[C@H](OC)[C@@H](O[C@H]4C[C@H](OC)[C@H](O)[C@H](C)O4)[C@H](C)O3)[C@H](C)O2)C(=O)NC/C=C/C=C(\C)[C@H](OC)[C@@H](C)[C@@H]2C[C@H](O)[C@@H](/C=C/C=C/C=C\C(=O)O)O2)[C@@H](O)[C@H](OC(=O)Cc2ccccc2)C1(C)C [LL-E19020 beta]
Survival Ratios 7 Days After Infection ([1]; single subcutaneous dose 4 mg/kg): 1/5 | Survival Ratios 7 Days After Infection ([1]; single subcutaneous dose 16 mg/kg): 1/5 | Survival Ratios 7 Days After Infection ([1]; single subcutaneous dose 64 mg/kg): 1/5 | Survival Ratios 7 Days After Infection ([1]; single subcutaneous dose 256 mg/kg): 1/5 | MIC [2]: > 256 µg/mL | Minimal Inhibitory Concentration [3]: >128 µg/mL | MIC [4]: 4 µg/mL (≈ 3.26 µM) | A:P ([5]; Table X, 0.008 PPM, control 2.65): 2.63 | TOTAL VFA ([5]; Table X, 0.008 PPM, control 159.4): 161.2 mM | A:P ([5]; Table X, 0.031 PPM, control 2.65): 2.44 | TOTAL VFA ([5]; Table X, 0.031 PPM, control 159.4): 161.1 mM | A:P ([5]; Table X, 0.125 PPM, control 2.65): 2.19 | TOTAL VFA ([5]; Table X, 0.125 PPM, control 159.4): 161.6 mM | A:P ([5]; Table X, 0.500 PPM, control 2.65): 2.15 | TOTAL VFA ([5]; Table X, 0.500 PPM, control 159.4): 156.7 mM | A:P ([5]; Table X, 2.000 PPM, control 2.65): 2.18 | TOTAL VFA ([5]; Table X, 2.000 PPM, control 159.4): 153.8 mM | A:P ([5]; Table XI, 0.015 PPM, control 2.19): 2.03 | TOTAL VFA ([5]; Table XI, 0.015 PPM, control 125.3): 127.2 mM | A:P ([5]; Table XI, 0.031 PPM, control 2.19): 1.98 | TOTAL VFA ([5]; Table XI, 0.031 PPM, control 125.3): 125.7 mM | A:P ([5]; Table XI, 0.062 PPM, control 2.19): 1.96 | TOTAL VFA ([5]; Table XI, 0.062 PPM, control 125.3): 123.7 mM | A:P ([5]; Table XI, 0.125 PPM, control 2.19): 1.92 | TOTAL VFA ([5]; Table XI, 0.125 PPM, control 125.3): 124.3 mM | A:P ([5]; Table XI, 0.250 PPM, control 2.19): 1.93 | TOTAL VFA ([5]; Table XI, 0.250 PPM, control 125.3): 122.6 mM | Minimal Inhibitory Concentration ([6]; strain ATCC 14956): 0.5 µg/mL | Minimal Inhibitory Concentration ([6]; strain ATCC 29328): 0.5 µg/mL | Minimal Inhibitory Concentration [7]: > 128 µg/mL | Minimal Inhibitory Concentration [8]: >128 µg/mL | Minimal Inhibitory Concentration [9]: >128 µg/mL | ZONE SIZE [10]: 11 mm | Minimal Inhibitory Concentration [11]: >128 µg/mL | Minimal Inhibitory Concentration [12]: >128 µg/mL | Minimal Inhibitory Concentration [13]: >128 µg/mL | MIC [14]: 0.125 µg/mL (≈ 0.102 µM) | Rating [15]: 9 (immobile or dead) | MIC [16]: 8 µg/mL (≈ 6.52 µM) | Minimal Inhibitory Concentration [17]: 1 µg/mL | MIC [18]: ≧ 256 µg/ml | ZONE SIZE [19]: 13 mm | MIC [20]: 16 µg/mL (≈ 13 µM) | Minimal Inhibitory Concentration [21]: > 128 µg/mL | MIC [22]: 8 to 16 µg/mL | Minimal Inhibitory Concentration [23]: 4 µg/mL | Minimal Inhibitory Concentration [24]: >128 µg/mL | MIC [25]: 2 to 4 µg/mL | Minimal Inhibitory Concentration ([26]; strain K-84-21): 0.5 µg/mL | Minimal Inhibitory Concentration ([26]; strain SVI): 1 µg/mL | Minimal Inhibitory Concentration ([26]; strain VGH-84-56): 0.5 µg/mL | Minimal Inhibitory Concentration ([26]; strain VGH-84-57): 1 µg/mL | Minimal Inhibitory Concentration ([26]; strain VGH-84-58): 0.25 µg/mL | Minimal Inhibitory Concentration ([26]; strain VGH-84-59): 0.25 µg/mL
